Results as given in PubChem BioAssay AID256 (DTP/NCI, 2004).
Values joined by “and” are separate entries in the source; they are usually repeats but may differ in a detail not shown here. Identical values can stand only once. Toxic doses and inconclusive results are not listed. Rule for the calls: active = survival T/C of 150% or more; inactive = T/C below 125% in these data.

Test system: CD2F1 mice, L1210 leukemia ip, survival T/C
Test: NCI In Vivo Anticancer Drug Screen. Data for tumor model L1210 Leukemia (intraperitoneal) in CD2F1 (CDF1) mice
Conditions: endpoint: mean survival time, higher = longer survival
How it was run: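 In this screen, transplantable tumors were grown in mice given either the compound or its vehicle. Results were expressed as the treated measurement relative to the control measurement.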

[1] = dose: 100.0 mg/kg/injection, schedule: Q01DX009 (ip), vehicle: saline with Tween-80
[2] = dose: 200.0 mg/kg/injection, schedule: Q01DX009 (ip), vehicle: saline with Tween-80
[3] = dose: 400.0 mg/kg/injection, schedule: Q01DX009 (ip), vehicle: saline with Tween-80
[4] = dose: 100.0 mg/kg/injection, schedule: Q01DX001 (ip), vehicle: saline with Tween-80
[5] = dose: 200.0 mg/kg/injection, schedule: Q01DX001 (ip), vehicle: saline with Tween-80
[6] = dose: 400.0 mg/kg/injection, schedule: Q01DX001 (ip), vehicle: saline with Tween-80

Measured: T/C

CC1(C)SC2C(NC(=O)Cc3ccccc3)C(=O)N2C1C(=O)O (stereo unspecified)
inactive: dose: 25.0 mg/kg/injection, schedule: Q01DX001 (ip), vehicle: saline 97 % of control | dose: 25.0 mg/kg/injection, schedule: Q04DX002 (ip), vehicle: saline 97 % of control | dose: 50.0 mg/kg/injection, schedule: Q01DX001 (ip), vehicle: saline 100 % of control | dose: 50.0 mg/kg/injection, schedule: Q04DX002 (ip), vehicle: saline 100 % of control | dose: 100.0 mg/kg/injection, schedule: Q01DX001 (ip), vehicle: saline 100 % of control and 102 % of control | dose: 100.0 mg/kg/injection, schedule: Q04DX002 (ip), vehicle: saline 97 % of control and 100 % of control | dose: 200.0 mg/kg/injection, schedule: Q01DX001 (ip), vehicle: carboxymethylcellulose (CMC) 104 % of control | dose: 200.0 mg/kg/injection, schedule: Q01DX001 (ip), vehicle: saline 97 % of control and 100 % of control | dose: 200.0 mg/kg/injection, schedule: Q04DX002 (ip), vehicle: saline 102 % of control and 104 % of control | dose: 400.0 mg/kg/injection, schedule: Q01DX001 (ip), vehicle: carboxymethylcellulose (CMC) 100 % of control

OCC(O)C(O)C(O)C(/C=N/Nc1ccccc1)=N/Nc1ccccc1 (stereo unspecified)
inactive: dose: 75.0 mg/kg/injection, schedule: Q01DX001 (ip), vehicle: saline 95 % of control | dose: 150.0 mg/kg/injection, schedule: Q01DX001 (ip), vehicle: saline 95 % of control | dose: 300.0 mg/kg/injection, schedule: Q01DX001 (ip), vehicle: saline 95 % of control

CNC(=O)OCc1c(COC(=O)NC)c(C)n(-c2ccccc2)c1C
inactive: dose: 6.25 mg/kg/injection, schedule: Q01DX009 (ip), vehicle: Klucel (hydroxypropylcellulose) (HPC) 109 % of control | dose: 12.5 mg/kg/injection, schedule: Q01DX009 (ip), vehicle: Klucel (hydroxypropylcellulose) (HPC) 106 % of control | dose: 25.0 mg/kg/injection, schedule: Q01DX009 (ip), vehicle: Klucel (hydroxypropylcellulose) (HPC) 104 % of control

Cc1cccc(NC(=O)c2cccc(Cl)c2)c1C
inactive: [1] 91 % of control | dose: 100.0 mg/kg/injection, schedule: Q04DX003 (ip), vehicle: saline with Tween-80 96 % of control | [2] 96 % of control | dose: 200.0 mg/kg/injection, schedule: Q04DX003 (ip), vehicle: saline with Tween-80 96 % of control | [3] 91 % of control | dose: 400.0 mg/kg/injection, schedule: Q04DX003 (ip), vehicle: saline with Tween-80 96 % of control

CCCCCCCCCCCCCCCCCCN1C(=O)C2C3CCC(O3)C2C1=O (stereo unspecified)
inactive: dose: 25.0 mg/kg/injection, schedule: Q04DX002 (ip), vehicle: saline with Tween-80 98 % of control | dose: 50.0 mg/kg/injection, schedule: Q04DX002 (ip), vehicle: saline with Tween-80 98 % of control | dose: 100.0 mg/kg/injection, schedule: Q04DX002 (ip), vehicle: saline with Tween-80 94 % of control

CC(=O)OC1C(O)C(OC(=O)c2ccccc2)C(OC(C)=O)C(OC(C)=O)C1OC(C)=O (stereo unspecified)
inactive: dose: 200.0 mg/kg/injection, schedule: Q01DX009 (ip), vehicle: Klucel (hydroxypropylcellulose) (HPC) 91 % of control | dose: 400.0 mg/kg/injection, schedule: Q01DX009 (ip), vehicle: Klucel (hydroxypropylcellulose) (HPC) 88 % of control

CC(=O)CC(C)(C)O
inactive: [1] 95 % of control | dose: 100.0 mg/kg/injection, schedule: Q04DX003 (ip), vehicle: saline sonified 102 % of control | [2] 96 % of control | dose: 200.0 mg/kg/injection, schedule: Q04DX003 (ip), vehicle: saline sonified 100 % of control | [3] 95 % of control | dose: 400.0 mg/kg/injection, schedule: Q04DX003 (ip), vehicle: saline sonified 97 % of control

CC(C)=CCC(OC(=O)C=C(C)C)c1cc(O)c2c(O)ccc(O)c2c1O.[Pt] (stereo unspecified)
inactive: dose: 1.56 mg/kg/injection, schedule: Q04DX003 (ip), vehicle: distilled water + Tween-80 104 % of control | dose: 3.12 mg/kg/injection, schedule: Q04DX003 (ip), vehicle: distilled water + Tween-80 104 % of control | dose: 6.25 mg/kg/injection, schedule: Q04DX003 (ip), vehicle: distilled water + Tween-80 101 % of control | dose: 12.5 mg/kg/injection, schedule: Q04DX003 (ip), vehicle: distilled water + Tween-80 101 % of control | dose: 25.0 mg/kg/injection, schedule: Q04DX003 (ip), vehicle: distilled water + Tween-80 95 % of control | dose: 50.0 mg/kg/injection, schedule: Q04DX003 (ip), vehicle: distilled water + Tween-80 89 % of control | dose: 100.0 mg/kg/injection, schedule: Q04DX003 (ip), vehicle: distilled water + Tween-80 92 % of control

O=C(CC(O)(C(F)(F)F)C(F)(F)F)c1cccc(C(F)(F)F)c1
inactive: [4] 90 % of control | [5] 108 % of control | [6] 103 % of control

CC(C)CC(Nc1sc([N+](=O)[O-])cc1[N+](=O)[O-])C(=O)O (stereo unspecified)
inactive: [4] 105 % of control | [5] 102 % of control | [6] 107 % of control
